Experimental data from patent US8802674B2, “Aminopyrimidine derivatives as LRRK2 modulators” (Genentech, Inc., priority 2011, dated 2014).
pKi: −log10 of the molar value.

Biological target: LRRK2 (Homo sapiens (Human), UniProt Q5S007, G2019S)
Test: In Vitro LRRK2 LabChip Assay
Type: biochemical
Details: Table 7
How it was run: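 Phosphorylated and unphosphorylated peptides were separated by capillary electrophoresis and quantified by fluorescence. Ki came from a tight-binding equation, given in μM.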

Sequence of LRRK2 (Q5S007 970-2527 G2019S limits assumed): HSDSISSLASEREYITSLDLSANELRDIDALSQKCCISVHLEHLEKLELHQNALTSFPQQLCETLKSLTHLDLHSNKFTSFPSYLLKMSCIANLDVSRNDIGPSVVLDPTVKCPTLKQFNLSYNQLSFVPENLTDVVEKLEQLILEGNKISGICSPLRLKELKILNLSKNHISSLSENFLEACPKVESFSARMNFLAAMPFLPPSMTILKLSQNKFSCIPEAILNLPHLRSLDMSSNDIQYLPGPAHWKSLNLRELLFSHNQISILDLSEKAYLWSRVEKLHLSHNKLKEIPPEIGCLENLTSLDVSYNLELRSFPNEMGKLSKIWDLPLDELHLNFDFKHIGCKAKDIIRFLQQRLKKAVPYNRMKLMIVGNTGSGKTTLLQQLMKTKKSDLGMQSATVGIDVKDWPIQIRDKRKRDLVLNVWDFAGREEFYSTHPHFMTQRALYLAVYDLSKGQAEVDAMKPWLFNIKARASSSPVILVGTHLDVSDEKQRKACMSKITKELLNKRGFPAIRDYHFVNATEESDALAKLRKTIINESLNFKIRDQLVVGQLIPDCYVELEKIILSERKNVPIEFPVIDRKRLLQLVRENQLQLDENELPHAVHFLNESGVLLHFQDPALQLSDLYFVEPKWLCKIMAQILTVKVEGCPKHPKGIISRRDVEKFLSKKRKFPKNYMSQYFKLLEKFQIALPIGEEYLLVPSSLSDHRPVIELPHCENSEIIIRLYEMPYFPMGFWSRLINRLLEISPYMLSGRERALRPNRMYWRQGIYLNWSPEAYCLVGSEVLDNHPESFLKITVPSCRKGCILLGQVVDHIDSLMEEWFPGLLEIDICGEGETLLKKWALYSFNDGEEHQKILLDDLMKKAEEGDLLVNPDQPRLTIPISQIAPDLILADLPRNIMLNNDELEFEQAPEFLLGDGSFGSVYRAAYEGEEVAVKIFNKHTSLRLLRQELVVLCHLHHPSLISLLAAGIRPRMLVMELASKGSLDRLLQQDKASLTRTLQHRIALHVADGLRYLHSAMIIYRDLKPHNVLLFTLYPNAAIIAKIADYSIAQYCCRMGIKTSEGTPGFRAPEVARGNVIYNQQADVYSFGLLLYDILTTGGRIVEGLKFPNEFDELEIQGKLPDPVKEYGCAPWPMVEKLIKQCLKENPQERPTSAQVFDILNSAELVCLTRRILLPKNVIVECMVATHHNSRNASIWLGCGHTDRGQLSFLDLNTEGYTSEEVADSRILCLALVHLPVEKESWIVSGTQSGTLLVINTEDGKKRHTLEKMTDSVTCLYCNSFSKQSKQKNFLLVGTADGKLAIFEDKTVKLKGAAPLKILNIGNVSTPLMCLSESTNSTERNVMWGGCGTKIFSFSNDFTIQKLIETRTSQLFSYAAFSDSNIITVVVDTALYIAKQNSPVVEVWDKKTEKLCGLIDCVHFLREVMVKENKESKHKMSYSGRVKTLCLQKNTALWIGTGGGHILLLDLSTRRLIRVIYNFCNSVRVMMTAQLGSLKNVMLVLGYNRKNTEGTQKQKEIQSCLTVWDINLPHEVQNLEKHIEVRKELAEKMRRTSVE

pKi | Structure (SMILES)
7.71 | CCNc1nc(Nc2cc(F)c(C(=O)N3C[C@@H](C)O[C@@H](C)C3)cc2OC)ncc1C#N [Example 319, 2-[4-((2R,6S)-2,6-Dimethyl-morpholine-4-carbonyl)-5-fluoro-2-methoxy-phenylamino]-4-ethylamino-pyrimidine-5-carbonitrile]
7.20 | CNc1nc(Nc2cc(F)c(C(=O)N(C)C)cc2OC)ncc1C#N [Example 320, 4-(5-Cyano-4-methylamino-pyrimidin-2-ylamino)-2-fluoro-5-methoxy-N,N-dimethyl-benzamide]
